Test results: patent US7288510B2, “Nitrogen-containing ortho ester-based surfactant, its preparation and use” (priority 2001, dated 2007)
Marks after values point to notes of the source that are not given here.

Columns and labels:
[1] = surface tension at a concentration of 0.1%; type: physicochemical; conditions: pH 8 buffer solution, bubble pressure method
[2] = dynamic contact angle of alkaline formulations; type: physicochemical; conditions: formulation diluted 1:10, on Parafilm PM-922
Experimental: In this example, the wetting properties of alkaline formulations of some of the surfactants earlier described are tested by dynamic contact angle measurements.
Formulations I-III above were diluted 1:10 before measurements. The dynamic contact angle was measured on a hydrophobic, polymeric material (Parafilm PM-922, American Can Company) using a First Ten Ångstroms FTÅ 200 instrument (Portsmouth, Va., USA) equipped with a video camera and an image analyzing unit.

[3] = literature value; cited from earlier work
[4] = hydrotrope test: clarity interval of cleaning formulation; type: physicochemical; conditions: for Active amount of hydrotrope added: amount needed until the formulation of Table 10 was clear; for Cloud point of formulation: formulation of Table 10 with the hydrotrope
Experimental: [table] Tetrapotassium pyrophoshate and sodium metasilicate pentahydrate were dissolved in tap water. The ethoxylated alcohol was added to this solution, which then turned cloudy. The hydrotrope was added until the solution was clear, and the required amount was recorded. Then the temperature was raised until the mixture went cloudy again.

[5] = foaming behaviour (proposed ISO 4877 circulation method); type: physicochemical
Experimental: The surfactant is dissolved in distilled water and diluted to a defined concentration. 500 ml of this solution is transferred to a thermostatable glass cylinder, graduated to 1500 ml. The solution is then circulated through a stainless steel tube using a pump. The solution enters the tube in the bottom of the glass cylinder and is released ca. 14 cm above the 1500-ml mark on the cylinder. The pump speed is 200 liter/h.
The solution is circulated for 10 minutes (foam level recorded each minute), the pump is then stopped, and the foam level recorded for additional 5 minutes (proposed ISO-method ISO 4877).

In the case of `CCCCCCCCCCCCCC[N+](C)(C)C.[Br-]` [Tetradecyltrimethylammonium bromide, n-tetradecyltrimethylammonium bromide], the “γ at 0.10% and 21° C.” value [1] is reported as 41.5 mN/m, the “Contact angle after 10 s” value [2] is reported as 60.4 ° and the “Contact angle after 30 s” value [2] is reported as 60.1 °. The “Contact angle after 1 min” value [2] was 59.1 ° and the “cmc at 21° C.” value [3] was 1.2^d g/l.
In the case of disodium octyliminodipropionate, the “Active amount of hydrotrope added” value [4] is reported as 6.0 % (w/w) and the “Cloud point of formulation” value [4] is reported as 45-50 °C.
For `CC(C)c1ccc(S(=O)(=O)[O-])cc1.[Na+]` [Sodium cumene sulfonate], the “Active amount of hydrotrope added” value [4] was 9.0 % (w/w) and the “Cloud point of formulation” value [4] was 45-50 °C.
With `CCCCCCCCCCCC[N+](C)(C)C.[Br-]` [Dodecyltrimethylammonium bromide, n-dodecyltrimethylammonium bromide] the “γ at 0.10% and 21° C.” value [1] was 52.5 mN/m, the “Contact angle after 10 s” value [2] was 68.2 ° and the “Contact angle after 30 s” value [2] was 67.9 °. The “Contact angle after 1 min” value [2] was 67.4 °, the “foaming behaviour in words” value [5] was “not affected by the addition of acid” and the “Foam Volume” value ([5]; 0.01% in distilled water, 1 min, circulating) was 160 mL. For the same compound, the “Foam Volume” value ([5]; 0.01% in distilled water, 2 min, circulating) was 160 mL, the “Foam Volume” value ([5]; 0.01% in distilled water, 3 min, circulating) was 160 mL and the “Foam Volume” value ([5]; 0.01% in distilled water, 4 min, circulating) was 140 mL. For the same compound, the “Foam Volume” value ([5]; 0.01% in distilled water, 5 min, circulating) was 140 mL, the “Foam Volume” value ([5]; 0.01% in distilled water, 6 min, circulating) was 140 mL and the “Foam Volume” value ([5]; 0.01% in distilled water, 7 min, circulating) was 140 mL. For the same compound, the “Foam Volume” value ([5]; 0.01% in distilled water, 8 min, circulating) was 140 mL, the “Foam Volume” value ([5]; 0.01% in distilled water, 9 min, circulating) was 140 mL and the “Foam Volume” value ([5]; 0.01% in distilled water, 10 min, circulating) was 140 mL. The “Foam Volume” value ([5]; 0.01% in distilled water, 11 min, pump stopped at 10 min) was 0 mL, the “Foam Volume” value ([5]; 0.01% in distilled water, 12 min, pump stopped at 10 min) was 0 mL and the “Foam Volume” value ([5]; 0.01% in distilled water, 13 min, pump stopped at 10 min) was 0 mL. The “Foam Volume” value ([5]; 0.01% in distilled water, 14 min, pump stopped at 10 min) was 0 mL, the “Foam Volume” value ([5]; 0.01% in distilled water, 15 min, pump stopped at 10 min) was 0 mL and the “Foam Volume” value ([5]; 0.1% acid treated (pH 2.5, sulfuric acid, stirred 10 minutes), 1 min, circulating) was 820 mL. The “Foam Volume” value ([5]; 0.1% acid treated (pH 2.5, sulfuric acid, stirred 10 minutes), 2 min, circulating) was 1100 mL, the “Foam Volume” value ([5]; 0.1% acid treated (pH 2.5, sulfuric acid, stirred 10 minutes), 3 min, circulating) was 1280 mL and the “Foam Volume” value ([5]; 0.1% acid treated (pH 2.5, sulfuric acid, stirred 10 minutes), 4 min, circulating) was 1360 mL. For the same compound, the “Foam Volume” value ([5]; 0.1% acid treated (pH 2.5, sulfuric acid, stirred 10 minutes), 5 min, circulating) was 1380 mL, the “Foam Volume” value ([5]; 0.1% acid treated (pH 2.5, sulfuric acid, stirred 10 minutes), 6 min, circulating) was 1380 mL and the “Foam Volume” value ([5]; 0.1% acid treated (pH 2.5, sulfuric acid, stirred 10 minutes), 7 min, circulating) was 1360 mL. The “Foam Volume” value ([5]; 0.1% acid treated (pH 2.5, sulfuric acid, stirred 10 minutes), 8 min, circulating) was 1360 mL, the “Foam Volume” value ([5]; 0.1% acid treated (pH 2.5, sulfuric acid, stirred 10 minutes), 9 min, circulating) was 1350 mL and the “Foam Volume” value ([5]; 0.1% acid treated (pH 2.5, sulfuric acid, stirred 10 minutes), 10 min, circulating) was 1340 mL. For the same compound, the “Foam Volume” value ([5]; 0.1% acid treated (pH 2.5, sulfuric acid, stirred 10 minutes), 11 min, pump stopped at 10 min) was 800 mL, the “Foam Volume” value ([5]; 0.1% acid treated (pH 2.5, sulfuric acid, stirred 10 minutes), 12 min, pump stopped at 10 min) was 340 mL and the “Foam Volume” value ([5]; 0.1% acid treated (pH 2.5, sulfuric acid, stirred 10 minutes), 13 min, pump stopped at 10 min) was 280 mL. For the same compound, the “Foam Volume” value ([5]; 0.1% acid treated (pH 2.5, sulfuric acid, stirred 10 minutes), 14 min, pump stopped at 10 min) was 120 mL, the “Foam Volume” value ([5]; 0.1% acid treated (pH 2.5, sulfuric acid, stirred 10 minutes), 15 min, pump stopped at 10 min) was 60 mL and the “Foam Volume” value ([5]; 0.1% in distilled water, 1 min, circulating) was 780 mL. For the same compound, the “Foam Volume” value ([5]; 0.1% in distilled water, 2 min, circulating) was 1080 mL, the “Foam Volume” value ([5]; 0.1% in distilled water, 3 min, circulating) was 1260 mL and the “Foam Volume” value ([5]; 0.1% in distilled water, 4 min, circulating) was 1340 mL. For the same compound, the “Foam Volume” value ([5]; 0.1% in distilled water, 5 min, circulating) was 1370 mL, the “Foam Volume” value ([5]; 0.1% in distilled water, 6 min, circulating) was 1360 mL and the “Foam Volume” value ([5]; 0.1% in distilled water, 7 min, circulating) was 1360 mL. The “Foam Volume” value ([5]; 0.1% in distilled water, 8 min, circulating) was 1340 mL, the “Foam Volume” value ([5]; 0.1% in distilled water, 9 min, circulating) was 1320 mL and the “Foam Volume” value ([5]; 0.1% in distilled water, 10 min, circulating) was 1320 mL. The “Foam Volume” value ([5]; 0.1% in distilled water, 11 min, pump stopped at 10 min) was 1200 mL, the “Foam Volume” value ([5]; 0.1% in distilled water, 12 min, pump stopped at 10 min) was 800 mL and the “Foam Volume” value ([5]; 0.1% in distilled water, 13 min, pump stopped at 10 min) was 400 mL. For the same compound, the “Foam Volume” value ([5]; 0.1% in distilled water, 14 min, pump stopped at 10 min) was 260 mL, the “Foam Volume” value ([5]; 0.1% in distilled water, 15 min, pump stopped at 10 min) was 180 mL and the “cmc at 21° C.” value [3] was 4.9^c g/l.
